Experimental data as given in US10494380B2, “Nitrogen-containing tricyclic derivatives having HIV replication inhibitory activity” (priority 2015, dated 2019).
pEC50: −log10 of the molar value. Where two headings read alike, the source gives them in different places.

Tests used:
[1] = test system: T125A mutant virus (HIV-1 NL-432 recombinant molecular clone, IN gene); experiment: HIV replication inhibition assay against integrase 124/125 mutant virus (Test Example 2); assay type: cell-based
Summary of the method: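 MT-4 cells (2.5×10^4 per well) infected with 60 pfu of 293T-derived HIV-1 NL-432 clone carrying integrase 124/125 point mutations, in presence of compound, cultured 4 days at 37 °C. Viability by MTT formazan at 560/690 nm; EC50 = concentration inhibiting 50% of virus-induced cytotoxicity.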

[2] = test system: HIV; assay type: cell-based; settings: EC50 in the presence of human serum (25%) versus without human serum, MT-4 cells
Description: To confirm the influence of human serum on anti-HIV activity as necessary, human serum was added and determined EC50 in this condition. Human serum (100 μL/well) was dispensed into each anti-HIV active substance at a designated concentration dispensed 50 μL each in advance into a 96-well microtiter plate, and the plate was incubate at room temperature for 1 hour. To the serum-free plate, only culture medium (100 μL/well) was dispensed into 96-well microtiter plate. MT-4 cells (3×10^4 cells/well) was infected with 3 μL/well of HIV solution diluted to an appropriate concentration (600 pfu/50 μL) by the required number of wells and incubated at 37° C. for 1 hour. The infected cells were centrifuged at 1200 rpm for 5 minutes, the supernatant was discarded, and the infected cells were dispersed into culture medium for the required number of wells at 50 μL/well. Infected cell suspension was dispensed into a 96-well microtiter plate of which anti-HIV active substance and human serum prepared in advance. The cell mixture was mixed with a plate mixer and cultured in a CO2 incubator for 4 days. The EC50 in the presence of human serum was calculated in the same manner as in Test Example 1 and the ratio of EC50 in the presence of human serum and EC50 in the absence of human serum was calculated as the potency shift value. […]

[3] = Human immunodeficiency virus 1, MT4, read-out: EC50 against T125A mutant virus, T125A mutant virus (HIV-1 NL-432 IN gene), MT-4 cells, MTT
[4] = T125A mutant virus (HIV-1 NL-432 IN gene), MT-4 cells, MTT, read-out: EC50 against T125A mutant virus

| SMILES | pEC50 [1, 3] | Potency shift value [2] | pEC50 ([1]; read-out: EC50 against T125A mutant virus, T125A mutant virus (HIV-1 NL-432 IN gene), MT-4 cells, MTT) | pEC50 [1, 4] |
| --- | --- | --- | --- | --- |
| Cc1c([C@H](OC(C)(C)C)C(=O)O)c(-c2ccc(Cl)cc2)c2cc(C)n3c2c1OCCC3 [Compound I-188] | 7.85 | 11 |  |  |
| Cc1c([C@H](OC(C)(C)C)C(=O)O)c(-c2c(F)cc(F)cc2F)c2cc(C)n3c2c1N(C)CC3 [Compound I-191] | 7.89 | 7.4 |  |  |
| COc1ccc(N2CCn3c(C)cc4c(-c5ccc(Cl)cc5)c([C@H](OC(C)(C)C)C(=O)O)c(C)c2c43)nc1 [Compound I-192] | 8.34 | 11 |  |  |
| Cc1c([C@H](OC(C)(C)C)C(=O)O)c(-c2ccc(Cl)cc2)c2cc(C)n3c2c1N(c1ncccc1F)CC3 [Compound I-193] | 8.55 | 21 |  |  |
| COc1cccc(N2CCn3c(C)cc4c(-c5ccc(Cl)cc5)c([C@H](OC(C)(C)C)C(=O)O)c(C)c2c43)n1 [Compound I-194] | 7.92 | 13 |  |  |
| Cc1c([C@H](OC(C)(C)C)C(=O)O)c(-c2ccc(Cl)cc2)c2cc(C)n3c2c1OC(C)C3 (stereo partly shown) [Compound I-195] | 7.82 | 12 |  |  |
| Cc1c([C@H](OC(C)(C)C)C(=O)O)c(-c2ccc(Cl)cc2)c2cc(C)n3c2c1OC(C)C3 (stereo partly shown) [Compound I-196] |  | 11 | 7.74 |  |
| COCCOC(=O)Nc1cnc(N2CCn3c(C)cc4c(-c5ccc(C)cc5)c([C@H](OC(C)(C)C)C(=O)O)c(C)c2c43)nc1 [Compound I-203] |  | 30 |  | 7.89 |
| Cc1ccc(-c2c([C@H](OC(C)(C)C)C(=O)O)c(C)c3c4c2cc(C)n4CCN3CCOCC(F)F)cc1 [Compound I-206] |  | 9.7 |  | 7.15 |
| CCOCCN1CCn2c(C)cc3c(-c4ccc(C)cc4)c([C@H](OC(C)(C)C)C(=O)O)c(C)c1c32 [Compound I-207] |  | 8.1 |  | 7.72 |
| Cc1ccc(-c2c([C@H](OC(C)(C)C)C(=O)O)c(C)c3c4c2cc(C)n4CCN3CCOC(F)F)cc1 [Compound I-208] |  | 11 |  | 7.62 |
| Cc1ccc(-c2c([C@H](OC(C)(C)C)C(=O)O)c(C)c3c4c2cc(C)n4CCN3CCF)cc1 [Compound I-209] |  | 24 |  | 7.80 |
| Cc1ccc(-c2c([C@H](OC(C)(C)C)C(=O)O)c(C)c3c4c2cc(C)n4CCN3S(=O)(=O)CCO)cc1 [Compound I-210] |  | 5.4 |  | 7.19 |
| Cc1ccc(-c2c([C@H](OC(C)(C)C)C(=O)O)c(C)c3c4c2cc(C)n4CCN3CC2COC2)cc1 [Compound I-211] |  | 7.5 |  | 7.70 |
| Cc1ccc(-c2c([C@H](OC(C)(C)C)C(=O)O)c(C)c3c4c2cc(C)n4CCN3c2ncc(C3=CCN(C)CC3)cn2)cc1 [Compound I-212] |  | 3.9 |  | 8.17 |
| Cc1ccc(-c2c([C@H](OC(C)(C)C)C(=O)O)c(C)c3c4c2cc(C)n4CCN3c2cccc(CO)n2)cc1 [Compound I-216] |  | 9.2 |  | 7.70 |
| Cc1ccc(-c2c([C@H](OC(C)(C)C)C(=O)O)c(C)c3c4c2cc(C)n4CCN3c2cccc(CN3CCOCC3)n2)cc1 [Compound I-217] |  | 9.1 |  | 7.41 |
| Cc1c([C@H](OC(C)(C)C)C(=O)O)c(-c2ccc(Cl)cc2)c2cc(C)n3c2c1N(C(=O)Nc1ccccc1N)CC3 [Compound I-218] |  | 5.5 |  | 7.70 |
| Cc1c([C@H](OC(C)(C)C)C(=O)O)c(-c2ccc(Cl)cc2)c2cc(C)n3c2c1N(c1cccc(=O)n1C)CC3 [Compound I-219] |  | 7.6 |  | 7.37 |

| SMILES | pEC50 [1, 3] | Potency shift value [2] | pEC50 ([1]; read-out: EC50 against T125A mutant virus, T125A mutant virus (HIV-1 NL-432 IN gene), MT-4 cells, MTT) | pEC50 [1, 4] |
| --- | --- | --- | --- | --- |
| CNCCOc1cnc(N2CCn3c(C)cc4c(-c5ccc(C)cc5)c([C@H](OC(C)(C)C)C(=O)O)c(C)c2c43)nc1 [Compound I-224] |  | 3.3 |  | 7.10 |
| Cc1ccc(-c2c([C@H](OC(C)(C)C)C(=O)O)c(C)c3c4c2cc(C)n4CCN3c2ncc(OCCN(C)S(C)(=O)=O)cn2)cc1 [Compound I-225] |  | 9.7 |  | 7.96 |
| Cc1cc2c(-c3ccc(Cl)cc3)c([C@H](OC(C)(C)C)C(=O)O)c(Cl)c3c2n1CCN3C [Compound I-228] | 8.59 | 9.1 |  |  |
| COc1cnc(N2CCn3c(C)cc4c(-c5ccccc5)c([C@H](OC(C)(C)C)C(=O)O)c(C)c2c43)nc1 [Compound I-231] | 8.00 | 22 |  |  |
| Cc1c([C@H](OC(C)(C)C)C(=O)O)c(-c2ccc(Cl)cc2)c2cc(C)n3c2c1N(C(=O)Nc1ccccc1Br)CC3 [Compound I-232] | 7.47 | 8.6 |  |  |
| COCCOc1cnc(N2CCn3c(C)cc4c(-c5ccc(Cl)cc5)c([C@H](OC(C)(C)C)C(=O)O)c(C)c2c43)nc1 [Compound I-234] | 8.44 | 19 |  |  |
| Cc1c([C@H](OC(C)(C)C)C(=O)O)c(-c2ccc(Cl)cc2)c2cc(C)n3c2c1N(c1ncc(-c2ccc(F)cc2)cn1)CC3 [Compound I-239] | 7.66 | 16 |  |  |
| Cc1c([C@H](OC(C)(C)C)C(=O)O)c(-c2ccc(Cl)cc2)c2cc(C)n3c2c1N(c1nc2ccccc2s1)CC3 [Compound I-240] | 7.29 | 12 |  |  |
| COc1cnc(N2c3c(C)c([C@H](OC(C)(C)C)C(=O)O)c(-c4ccc(C)cc4)c4cc(C)n(c34)C[C@H]2C)nc1 [Compound I-241] | 8.66 | 8.4 |  |  |
| Cc1c([C@H](OC(C)(C)C)C(=O)O)c(-c2ccc(Cl)cc2)c2cc(C)n3c2c1N(c1nc2ccccc2n1C)CC3 [Compound I-242] | 8.19 | 11 |  |  |
| Cc1ccc(-c2c([C@H](OC(C)(C)C)C(=O)O)c(Cl)c3c4c2cc(C)n4CCN3)cc1 [Compound I-247] | 8.08 | 7.6 |  |  |
| Cc1cc(F)c(-c2c([C@H](OC(C)(C)C)C(=O)O)c(C)c3c4c2cc(C)n4CCN3CCN(C)C)c(F)c1 [Compound I-248] | 7.17 | 1.5 |  |  |
| Cc1ccc(-c2c([C@H](OC(C)(C)C)C(=O)O)c(C)c3c4c2cc(C)n4CCN3c2ncc(C(=O)N(C)C)cn2)cc1 [Compound I-250] | 8.00 | 19 |  |  |
| Cc1ccc(-c2c([C@H](OC(C)(C)C)C(=O)O)c(C)c3c4c2cc(C)n4CCN3c2nc3ccccc3n2C)cc1 [Compound I-251] | 8.38 | 9.6 |  |  |
| Cc1c([C@H](OC(C)(C)C)C(=O)O)c(-c2ccc(Cl)cc2)c2cc(C)n3c2c1N(c1ncc(N2CCCC2)cn1)CC3 [Compound I-252] | 8.07 | 23 |  |  |
| Cc1c([C@H](OC(C)(C)C)C(=O)O)c(-c2ccc(Cl)cc2)c2cc(C)n3c2c1N(c1ncc(OCCCO)cn1)CC3 [Compound I-256] | 8.25 | 10 |  |  |
| Cc1c([C@H](OC(C)(C)C)C(=O)O)c(-c2ccc(Cl)cc2)c2cc(C)n3c2c1N(c1ncc(OCC2(F)COC2)cn1)CC3 [Compound I-259] | 8.36 | 15 |  |  |
| Cc1ccc(-c2c([C@H](OC(C)(C)C)C(=O)O)c(C)c3c4c2cc(C)n4CCN3c2cnc(C)cn2)cc1 [Compound I-264] | 8.36 | 26 |  |  |
| Cc1ccc(-c2c([C@H](OC(C)(C)C)C(=O)O)c(C)c3c4c2cc(C)n4CCN3c2cccc(C(=O)N(C)C)n2)cc1 [Compound I-269] | 7.54 | 7.4 |  |  |
